In brackets after ≈: the same amount, converted by molar mass.
How the values were obtained:
MTT cytotoxicity assay = type: cell-based, canine; conditions: dog, MDCK-MDR1 cells; 0–20 μg/mL, 3 h; read-out: cellular inhibition rate
Description: (§1) MDCK-MDR1 cells at passage 17 were cultured in DMEM supplemented with 10% FBS, 1% glutamine, 100 U/mL penicillin/streptomycin, 1% NEAA, and 1 mmol/L sodium pyruvate. The cells were incubated overnight at 37°C with 5% CO2 and a relative humidity of 90%. Once the cells reached approximately 80% confluence, they were treated with a 0.25% trypsin/EDTA solution to dissociate the cells. Subsequently, the cells were seeded at a density of 5 × 10^5 cells/cm^2 in Millicell-96 well plates (Millipore, Burlington, USA). Prior to conducting the experiments, the integrity of the cell monolayer was confirmed by measuring transepithelial electrical resistance (TEER) using a Millicell ERS® meter (Millipore, Burlington, USA). A TEER value greater than 400 Ω cm^2 was required to ensure the formation and preservation of tight junctions.
(§2) The ability of ammoxetine to inhibit the growth of MDCK-MDR1 cells was evaluated using the MTT assay. Ammoxetine was diluted with transport buffer [Hank’s balanced salt solution (HBSS) containing 6.0 g HEPES, pH 7.2–7.4] from a stock solution (2 mg/mL) dissolved in HBSS to create a series of standard concentrations: 1.28, 6.4, 32, 160, 800 ng/mL and 4, 20, 100, 500 μg/mL. Prior to the assay, the cell culture medium was aspirated and replaced with different standard concentrations of ammoxetine (100 μL/well, n = 6). The cells were then incubated at 37°C for 3 h. Following the incubation, 20 μL of MTT solution (5 mg/mL) was added to each well, and the incubation was continued for 4 h. Subsequently, the solution in each well was discarded, and 150 μL of dimethyl sulfoxide was added. After vortexing for 10 min, the absorbance was measured at 570 nm using a Varioskan® Flash multimode reader (Thermo Fisher Scientific, Waltham, USA). Blank control solutions, consisting of HBSS without ammoxetine, were also applied to the cells. The absorbance values were then used to calculate the relative growth rate (RGR, %) of cells using the formula RGR = ODammoxetine/ODblank × 100%, where ODammoxetine and ODblank represent the mean absorbance values of six parallel measurements in the ammoxetine and blank control solutions, respectively ([Ji et al., 2024]). The Prism 5 software (GraphPad Software, Inc., San Diego, USA) was used to determine the 50% toxic concentration (TC50) value of ammoxetine.

MDCK-MDR1 cells [1] = assay: MTT cytotoxicity assay; type: cell-based, canine
Description: as §1, §2

[2] = Configurational stability study (in vivo chiral inversion); parameters: species or system SD rats; conditions: rat plasma 2 h after 50 mg/kg oral, chiral HPLC
Description: Twelve SD rats were divided into three groups: a blank control group, an S-071031B group (50 mg/kg), and an R-071031B group (50 mg/kg). Prior to administration, the animals underwent a 12-h fasting period while having access to water. At 2 h post-dosing, the rats were anesthetized, and blood samples were collected from the abdominal aorta into heparinized tubes. Plasma samples were obtained by centrifuging the collected blood at 2,000×g for 10 min to remove blood cells. Subsequently, 1 mL of plasma sample was mixed with 100 μL of 0.1% sodium hydroxide solution and 4 mL of ether. After centrifugation at 2,000×g for 10 min, the upper organic phase within each group was combined, transferred to a new tube, and dried under a stream of nitrogen. The resulting residues were reconstituted with 100 μL of methanol for subsequent HPLC analysis.
A chiral chromatographic column was employed to separate the enantiomers, and the RT of X-071031B (racemic 071031B) and S-071031B (ammoxetine) standards were determined for identification. Plasma samples were collected from rats 2 h after oral administration of 50 mg/kg of S-071031B or R-071031B. The presence of a chromatographic peak at the RT corresponding to the opposite enantiomer following the administration of the S-isomer would indicate the conversion of the S-isomer to the R-isomer in rats. […]

P-gp = assay: Bidirectional permeability measurements in MDCK-MDR1 monolayers; type: in vitro ADME, canine; conditions: dog, MDCK-MDR1, with verapamil 100 μmol/L, verapamil 100 μmol/L
Description: as §1
(§3) Cell monolayers were preincubated with HBSS for 15 min at 37°C. To measure the A→B (apical side to basolateral side of monolayer) transporter, 400 μL of ammoxetine solution was added to the A-side (donor chamber), and 1,200 μL of HBSS solution was added to the B-side (receiver chamber). The B→A transporter was evaluated by adding 1,200 μL of ammoxetine solution to the B-side (donor chamber) and 400 μL of HBSS solution to the A-side (receiver chamber). At 0 h, 50 μL of the solution was taken from the donor chamber, and aliquots of 50 μL were taken from the receiver chamber at 15, 30, 45, 60, 90, and 120-min time intervals. The collected aliquots were immediately replaced with equal volumes of fresh blank HBSS. Ammoxetine transport was studied at three concentrations: 0.2, 1, and 5 μg/mL, with each concentration evaluated in triplicate. […] Ammoxetine samples collected from the receiver chambers at different time points were mixed with 150 μL of acetonitrile/methanol (1:1, v/v) solution containing 50 ng/mL L-phencynonate (IS). The mixtures were then vortexed for 1 min and centrifuged for 10 min at 13,800×g. The supernatants were analyzed using an LC-MS-MS method.
(§4) The apparent permeability coefficient ( Papp , cm/s) values for ammoxetine were determined using Equation 1: Papp=dQ/dt/A×C0 (1)
(§5) Here, dQ/dt represents the amount of drug transported to the receiver chamber within a specific time period, A is the surface area of the cell monolayer (=0.33 cm^2), and C0 is the initial concentration of ammoxetine.
(§6) In general, the involvement of a P-gp-mediated efflux mechanism was indicated if the efflux ratio ( ER ) value exceeded 1.5 ([Langthaler et al., 2024]). […]

P-gp (MDR1) = assay: as above; type: in vitro ADME, canine; conditions: dog, MDCK-MDR1, read-out: ER [Papp(B→A)⁄Papp(A→B)]
Description: as §1, §3, §4, §5, §6

MDCK-MDR1 cells [3] = assay: as above; type: in vitro ADME, canine; conditions: from ER and verapamil effect
Description: as §1, §3, §4, §5, §6

[4] = parameters: method as in Xue et al., 2017; conditions: citric acid/phosphate buffer (pH 2); ref Xue et al., 2017; cited from earlier work

CNCC[C@H](Oc1cccc2c1OCO2)c1cccs1 [ammoxetine]
inhibition at 3 h (MTT cytotoxicity assay): < 10%
RGR (%) (MDCK-MDR1 cells [1]; 0.16 μg/mL): 103.48±9.43%
RGR (%) (MDCK-MDR1 cells [1]; 0.80 μg/mL): 102.55±18.09%
RGR (%) (MDCK-MDR1 cells [1]; 4 μg/mL): 103.59±20.82%
RGR (%) (MDCK-MDR1 cells [1]; 20 μg/mL): 89.16±12.89%
RGR (%) (MDCK-MDR1 cells [1]; 100 μg/mL): 55.53±7.87%
RGR (%) (MDCK-MDR1 cells [1]; 500 μg/mL): 24.49±2.36%
RGR (%) (MDCK-MDR1 cells [1]; 1.28×e-3 μg/mL): 113.13±22.65%
RGR (%) (MDCK-MDR1 cells [1]; 3.20×e-2 μg/mL): 103.57±14.18%
RGR (%) (MDCK-MDR1 cells [1]; 6.40×e-3 μg/mL): 114.88±14.68%
TC50 (MDCK-MDR1 cells [1]; 50% toxic concentration from ln concentration-RGR curve): 79.76 ± 18.94 µg/mL (≈ 274 µM)
chiral inversion in vivo [2]: does not undergo conversion to R-071031B
Papp A→B at 120 min, 0.2 μg/mL (P-gp; 0.2 μg/mL): 27.2 ± 6.43 ×10⁻⁶ cm/s
Papp A→B at 120 min, 1 μg/mL (P-gp; 1 μg/mL): 28.8 ± 1.89 ×10⁻⁶ cm/s
Papp A→B at 120 min, 5 μg/mL (P-gp; 5 μg/mL): 29.9 ± 3.29 ×10⁻⁶ cm/s
efflux ratio at 120 min, 0.2 μg/mL (P-gp (MDR1); 0.2 μg/mL): 1.67
efflux ratio at 120 min, 1 μg/mL (P-gp (MDR1); 1 μg/mL): 1.74
efflux ratio at 120 min, 5 μg/mL (P-gp (MDR1); 5 μg/mL): 1.9
P-gp substrate status (MDCK-MDR1 cells [3]): likely a substrate of P-gp
stability in buffer [4]: instability
